Earlier results, collected in US11197860B2 (Eli Lilly and Company, priority 2018, dated 2021).

Legend:
[1] = PBC patients; Nevens et al. 2016
[2] = patients in clinical trials; ALT and AST increases to >=5x and >=10x ULN observed
[3] = phase 3 trials; EMA Assessment Report for Olumiant

| Structure (SMILES) | pruritus (adverse effect) [1] | incidence of liver enzyme elevation compared to placebo [2] | patient's ALP after treatment [3] |
| --- | --- | --- | --- |
| CC[C@H]1[C@@H](O)[C@@H]2[C@H](CC[C@]3(C)[C@@H]([C@H](C)CCC(=O)O)CC[C@@H]23)[C@@]2(C)CC[C@@H](O)C[C@@H]12 [obeticholic acid, Obeticholic acid] | associated with increased pruritus | – | – |
| CCS(=O)(=O)N1CC(CC#N)(n2cc(-c3ncnc4[nH]ccc34)cn2)C1 [baricitinib, {1-(ethylsulfonyl)-3-[4-(7H-pyrrolo[2,3-d]pyrimidin-4-yl)-1H-pyrazol-1-yl]azetidin-3-yl}acetonitrile] | – | increased incidence of liver enzyme elevation compared to placebo | ALP decreased after treatment |
